Reference: PubChem BioAssay (NCI)
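Compound exposure: 48 hours, 5 concentrations, 96-well plates. TGI marks complete inhibition of growth.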

Assays:
Experiment in all cases: NCI anticancer screen, dose series, 48 h
[1] = test system: CCRF-CEM leukemia
[2] = test system: DU-145 prostate
[3] = test system: HCC-2998 colon
[4] = test system: HCT-15 colon
[5] = test system: HT29 colon
[6] = test system: MCF7 breast
[7] = test system: NCI-H226 lung
[8] = test system: NCI-H460 lung
[9] = test system: SNB-19 CNS
[10] = test system: SR leukemia
[11] = test system: TK-10 renal
[12] = test system: UO-31 renal

| Structure (SMILES) | TGI [1] [µM] | TGI [2] [µM] | TGI [3] [µM] | TGI [4] [µM] | TGI [5] [µM] | TGI [6] [µM] | TGI [7] [µM] | TGI [8] [µM] | TGI [9] [µM] | TGI [10] [µM] | TGI [11] [µM] | TGI [12] [µM] |
| --- | --- | --- | --- | --- | --- | --- | --- | --- | --- | --- | --- | --- |
| COC(=O)N1CC(=O)C(C(=O)NC23CC4CC(CC(C4)C2)C3)C1 (stereo not given) | > 100 | > 100 | > 100 | > 100 | > 100 | > 100 | > 100 | > 100 | > 100 | > 100 | > 100 | > 100 |
| COc1ccc(C2=NN(c3ccccc3)C[N+](c3ccc(C)cc3)=N2)cc1 | 60.8 |  | > 100 | > 100 | > 100 |  | > 100 | > 100 | > 100 | > 100 | > 100 | > 100 |
| COC(=O)c1cc(C(=O)OC)c(CC(=O)C(=O)NC2C3CC4CC(C3)CC2C4)nc1CC(=O)C(=O)NC1C2CC3CC(C2)CC1C3 (stereo not given) | > 100 |  | > 100 | > 100 | > 100 |  | > 100 | > 100 | > 100 | > 100 | > 100 | > 100 |
| CC(=O)OC(CC1(C)C(C)CCC23COC(=O)C2=CCCC31)c1ccoc1 (stereo not given) | 80.3 |  | 57.1 | 56.2 | > 100 |  | 44.1 | > 100 | 82.9 |  |  | 60 |
| COc1cc2c(c(OC)c1OC)-c1ccc(SC)c(=O)cc1C(CC(=O)Oc1cccc([N+](=O)[O-])c1)C2 (stereo not given) | > 57.2 |  | 0.849 | 2.24 | 1.99 |  | 3.51 | 8.13 | > 100 |  | > 100 | > 100 |
| NCCSc1cc(O)c2c(c1N)C(=O)c1ccccc1C2=O | 43.1 |  | > 100 | > 100 | > 100 |  |  | > 100 | > 100 | 73.4 | > 100 | > 100 |
| CC1CN=C(NS(=O)(=O)c2cc(C(=O)Nc3ccc(Cl)cc3)c(Cl)cc2S)NN1 (stereo not given) | > 100 | > 100 | 49.1 | > 100 | > 100 | > 100 | 68.8 | > 100 | > 100 | > 100 | > 100 | > 100 |
| CCOC(=O)C(=O)C=P(c1ccccc1)(c1ccccc1)c1ccccc1 | > 100 |  | > 100 | > 100 | > 100 |  | > 100 | > 100 | > 100 | > 100 | > 100 | > 100 |
